Legend:
[1] = system: hypoglossal (XII) nerve discharge, neonatal rat medullary slice preparation; experiment: Integrated hypoglossal (XII) nerve recordings in the in vitro neonatal rat medullary slice preparation; conditions: for ∫XII nerve discharge amplitude: longer-term (>2 hours) bath application; for long-lasting potentiation of ∫XII nerve amplitude: 1-12 hours after
Procedure: (§1) Experiments were performed on medullary slice preparations from 0-4 day-old neonatal rats that retain functional respiratory networks. Details of the preparation have been previously described. See Funk et al. (1993) J Neurophysiol 70:1497-1515. Briefly, neonatal rats were anesthetized with isoflurane, decerebrated, and the neuraxis isolated by dissection in artificial cerebrospinal fluid (ACSF) [(in mM) 128 NaCl, 3.0 KCl, 1.5 CaCl2, 1.0 mgSO4, 21 NaHCO3, 0.5 Na2HPO4, and 30 D-glucose] equilibrated with 95% 02-5% CO2 at 27-28° C. The neuraxis was sectioned with a vibratome in the transverse plane starting from the rostral medulla to within 150 μm nucleus ambiguous (Smith, J. C. et al., (1991) Science 254(5032):726-729. A single, 700 μm thick transverse slice was then cut, transferred to a 1.5 ml recording chamber and held in place by stainless steel harp. The slice was continuously superfused (≧3 ml/min) by ACSF with extracellular K^+ concentration raised to 9 mM to maintain rhythmic output.
Respiratory motor output was recorded from cut ends of XII nerve roots rectified, filtered and integrated. Peak amplitude was obtained from signals of XII nerve discharge. The activity in individual XII motoneurons was measured via whole-cell voltage-clamp techniques.
Cyclothiazide, CX546, and aniracetam were introduced by bath application to determine the effects of cyclothiazide, CX546, and aniracetam on respiratory activity. Stable respiratory activity was recorded for at least 30 minutes preceding drug application. After removal of the drug, recordings continued for over 12 hours.

obstructive sleep apnea = experiment: Treatment of a patient having obstructive sleep apnea; format: in vivo; conditions: about 0.1 to 100 mg/kg body weight
Source text: A patient is diagnosed as having obstructive sleep apnea. This diagnosis is confirmed by the presence of obstructive sleep apnea symptoms, including daytime sleepiness, unintentional sleep episodes, unrefreshing sleep, fatigue, or insomnia; awakening with breath holding, gasping, or choking; reports by a bed partner of loud snoring, breathing interruptions, or both in the patient's sleep; sleep study monitoring that documents >5 episodes of hypopnea and apnea per hour. The patient is administered a pharmaceutical formulation of benzothiadiazide. Benzothiadiazide is administered to the patient orally or intravenously at a dosage of about 0.1 to 100 mg benzothiadiazide/kg body weight as determined by the attending physician. The patient is monitored for reduction or inhibition of obstructive sleep apnea and associated symptoms. […] Cyclothiazide is administered to the patient intravenously at a dosage of about 0.1 to 100 mg cyclothiazide/kg body weight as determined by the attending physician. The patient is monitored for reduction or inhibition of obstructive sleep apnea and associated symptoms. […] Aniracetam is administered to the patient intravenously at a dosage of about 0.1 to 100 mg aniracetam/kg body weight as determined by the attending physician. The patient is monitored for reduction or inhibition of obstructive sleep apnea and associated symptoms.

snoring = experiment: Treatment of a patient having snoring; format: in vivo; conditions: about 0.1 to 100 mg/kg body weight
Procedure: A patient is diagnosed as having snoring. This diagnosis is confirmed by the presence of snoring sounds made by the patient during sleep or conditions associated with snoring.
(§2) The patient is administered a pharmaceutical formulation of an AMPA receptor modulator. The AMPA receptor modulator is administered to the patient intravenously or orally at a dosage of about 0.1 to 100 mg AMPA receptor modulator/kg body weight as determined by the attending physician. The patient is monitored for reduction or inhibition of snoring and associated symptoms.
as §2, with “ampakine.” for “AMPA receptor modulator.”, “ampakine” for “AMPA receptor modulator”, “ampakine/kg” for “AMPA receptor modulator/kg”
as §2, with “CX546. CX546” for “an AMPA receptor modulator. The AMPA receptor modulator”, “CX546/kg” for “AMPA receptor modulator/kg”
as §2, with “aniracetam. Aniracetam” for “an AMPA receptor modulator. The AMPA receptor modulator”, “aniracetam/kg” for “AMPA receptor modulator/kg”
as §2, with “benzothiadiazide. Benzothiadiazide” for “an AMPA receptor modulator. The AMPA receptor modulator”, “benzothiadiazide/kg” for “AMPA receptor modulator/kg”
The patient is administered a pharmaceutical formulation of cyclothiazide. Cyclothiazide is administered to the patient intravenously at a dosage of about 0.1 to 100 mg cyclothiazide/kg body weight as determined by the attending physician. […]

XII motoneurons = experiment: Whole-cell voltage-clamp of XII motoneurons in the medullary slice; format: cell-based, rat; conditions: 90 μM for 15 minutes
Procedure: as §1
XII motoneurons were selected according to a hierarchy of criteria. Selection criteria for respiratory motoneurons are described by Funk et al. (1993) J Neurophysiol 70:1497-1515. […]
Respiratory motor output was recorded from cut ends of XII nerve roots rectified, filtered and integrated. […] The activity in individual XII motoneurons was measured via whole-cell voltage-clamp techniques.

[2] = system: genioglossus (GG) muscle activity in anesthetized freely breathing rats; experiment: Genioglossus EMG and respiratory rate in anesthetized freely breathing rats; format: in vivo, Sprague-Dawley rats
Procedure: Anesthetized freely breathing rats provide a live animal model for determining effects of AMPA receptor modulators on genioglossus (GG) muscle activity.
Adult Sprague-Dawley rats (˜300 g) were anaesthetized with ketamine (100 mg kg^−1) and xylazine (10 mg kg^−1) injected intraperitoneally. 1-1.5 vol % isoflurane in O2 was inhaled during the experimental stage to provide for stable recordings and continued anesthesia. To measure GG electromyographic activity (EMG), stainless steel wire electrodes were sutured into the muscle. The raw GG EMG signal was rectified filtered and integrated.
Respiratory frequency and tidal volume were measured via pressure transducer attached to the rostral end of a polyethylene cannula that was inserted into the trachea of the anesthetized rat. The animal was freely breathing without the use of any ventilator or other method of respiratory support. These methods were taken in part from those reported in Tan, W., et al. (2008) Nat. Neurosci. 11(5):538-40 and Janczewski, W. A. and Feldman, J. L. (2006) J. Physiol. 570(Pt 2):407-20, incorporated by reference in their entirety.

[3] = short-duration (1 hour) application, 90 μM, FIG. 2
[4] = injection into XII motor nucleus (1 μL, 25 mM), 30 minutes post-injection, FIG. 7
[5] = local application to the IVth ventricle, FIG. 8A
[6] = micropipette injection into hypoglossal (XII) motor nucleus, 8 minutes after, FIG. 6

## COc1ccc(C(=O)N2CCCC2=O)cc1 [aniracetam]
[1]; 700 μM, FIG. 5B
  ∫XII nerve discharge amplitude: induces a persistent potentiation of ∫XII nerve discharge amplitude
Obstructive sleep apnea
  symptoms of obstructive sleep apnea: reduces the symptoms of obstructive sleep apnea
snoring
  snoring: reduces snoring

## NS(=O)(=O)c1cc2c(cc1Cl)NC(C1CC3C=CC1C3)NS2(=O)=O (centres unmarked) [cyclothiazide]
[1]; 1-hour bath application, 90 μM
  effect on respiratory rate (frequency) in slice: minor effects on respiratory rate (frequency)
[1]; 1-hour bath application, 90 μM, FIG. 1A
  potentiation of hypoglossal (∫XII) nerve discharge amplitude: 2 fold
[1]; 1 hour following a 1 hour application of 3, 9, 30, or 90 μM, FIG. 3
  dose-response of normalized ∫XII nerve amplitude: ∫XII nerve amplitude increases as a function of cyclothiazide concentration
[1]; after 1-hour bath application, 90 μM, drug removed
  persistence of potentiation of ∫XII nerve discharge amplitude: > 12 h
[1]; [3]
  long-lasting potentiation of ∫XII nerve amplitude: causes long-lasting potentiation of ∫XII nerve amplitude
[1]; short-duration (1 hour) application, 90 μM, group data 1-12 hours after, FIG. 2
  increase of ∫XII nerve output: 200-300%
XII motoneurons; 1 hour post-treatment, FIG. 4A
  XII motoneuron drive currents: potentiates endogenously generated XII motoneuron drive currents
XII motoneurons; control vs 1 hour post-treatment, FIG. 4B
  XII motoneuron charge transfer and ∫XII nerve peak amplitude: induces XII motoneuron charge transfer and increase of ∫XII nerve amplitude
[2]; [4]
  average increase of ∫GG activity relative to control: 300%
  peak increase of ∫GG activity relative to control: 600%
[2]; [5]
  average increase of ∫GG activity compared to control: 50%
  peak increase of ∫GG activity compared to control: 150%
[2]; local application to the IVth ventricle, FIG. 8B
  respiratory rate: without affecting respiratory rate
[2]; local application to the IVth ventricle, until the end of the experiment
  duration of elevation of ∫GG activity: ~90 min
[2]; [6]
  respiratory frequency: does not affect respiratory frequency
  ∫GG activity: induces an increase in ∫GG activity
Obstructive sleep apnea
  symptoms of obstructive sleep apnea: reduces the symptoms of obstructive sleep apnea
snoring
  snoring: reduces snoring

## O=C(c1ccc2c(c1)OCCO2)N1CCCCC1 [CX546]
[1]; 1-hour bath application, 90 μM
  effect on respiratory rate (frequency) in slice: increase in ∫XII nerve discharge and respiration rate that subsides over time with drug removal
[1]; 1-hour bath application, 90 μM, FIG. 1B
  effect on ∫XII nerve discharge: induces an increase in ∫XII nerve discharge and respiration rate that subsides over time with drug removal
[1]; 20 μM, FIG. 5A
  ∫XII nerve discharge amplitude: induces a persistent potentiation of ∫XII nerve discharge amplitude
[1]; [3]
  long-lasting potentiation of ∫XII nerve amplitude: but not CX546 causes long-lasting potentiation
[2]; intravenous injection into femoral vein, 130 μg/kg, FIG. 9A
  average increase of ∫GG activity compared to control: 15%
[2]; intravenous injection, 130 μg/kg, FIG. 9B
  respiratory rate: no long term changes in respiratory rate
[2]; intravenous injection, 130 μg/kg, no diminution of amplitude
  duration genioglossus muscle activity remained elevated: more than 2 hours
snoring
  snoring: reduces snoring

From patent publication US20110218190A1, “THERAPEUTIC USES OF AMPA RECEPTOR MODULATORS FOR TREATMENT OF MOTOR DYSFUNCTION” (THE REGENTS OF THE UNIVERSITY OF CALIFORNIA, priority 2008, published 2011)
